Measurements: patent publication US11065269B1, “Method of using astaxanthin for the treatment of diseases, and more particularly, the treatment of cancer” (priority 2018, dated 2021)

Tests used:
[1] = increasing astaxanthin levels in the diet (experiments conducted with the invention); assay type: in vivo
Method: In experiments conducted with the present invention, it is been shown that increasing astaxanthin levels in the diet can be used as a pre-cancer, cancer and anti-inflammatory prophylactic at levels up to 400 mg per day.

[2] = relative to betacarotene; cited from earlier work
[3] = cited from earlier work
[4] = oral; cited from earlier work

CC1=C(/C=C/C(C)=C/C=C/C(C)=C/C=C/C=C(C)/C=C/C=C(C)/C=C/C2=C(C)C(=O)[C@@H](O)CC2(C)C)C(C)(C)C[C@H](O)C1=O [astaxanthin]
side effects ([1]; dietary levels up to 400 mg per day): No discernible side effects
side effects or skin color changes ([1]; treatment of greater than 50 mg per day): No side effects or skin color changes were observed
feces colour ([1]; up to 400 mg per day, from unabsorbed astaxanthin): some decolorization of feces
anti-inflammatory effect and pain reduction associated with arthritis ([1]; within four weeks of treatment of greater than 50 mg per day): Anti-inflammatory and pain reduction associated with arthritis were noted
times more reactive as an antioxidant than betacarotene [2]: 400 times
singlet oxygen quenching, times stronger than CoQ10 ([3]; relative to CoQ10): 800 times
singlet oxygen quenching, times stronger than vitamin C ([3]; relative to vitamin C): 6000 times
singlet oxygen quenching, times stronger than vitamin E ([3]; relative to vitamin E): 550 times
toxic side effects [4]: No toxic side effects have been observed
